Measurements as given in patent US11376247B2, “Tyrosine kinase inhibitors regenerate non-cancerous tissue after cancer therapy” (THE REGENTS OF THE UNIVERSITY OF COLORADO, A BODY CORPORATE, priority 2017, dated 2022).

Tests used:
SMG acinar cells = test: Salivary gland histology (H&E, AQPN5 immunohistochemistry) 150 days after IR; type: in vivo, mice; conditions: 15 Gy IR, continuous dasatinib
Method: The star indicates time of IR treatment; while TKI delivery is indicated by the filled circles and arrows indicate time of saliva collection. Mice were dosed 1 hour prior and 3 hours post IR (pre/post), or pre/post plus twice a week for the duration of the experiment. Saliva production was assayed prior to IR (day 0) and at 30, 60, 90, 120 and 150 days after IR. Mice received vehicle alone, 15 Gy IR plus vehicle, or IR plus dasatinib as indicated. […] Salivary glands from mice in each group (n=2) were removed, formalin fixed and paraffin embedded. Immunohistochemistry for AQPN5 and H&E staining was performed on salivary glands from each mouse. […] Images were captured using an Olympus BX51 scope and Olympus DP72 camera with a 20× objective. […]
For tissue analysis, salivary glands were formalin fixed, paraffin embedded, and sectioned at […]. Tissue sections were stained with haematoxylin-eosin (H&E) and aquaporin 5 (AQPN5) was detected by immunohistochemistry (Abcam). Stained slides were archived and analyzed using the Aperio Digital Pathology System and ImageScope software (Leica Biosystems). For AQPN5, the number of positive stained pixels was quantified using the Positive Pixel algorithm in three representative sections, cut 50 micrometers apart, of both full submandibular salivary glands from two mice per treatment group, for a total of […] per group. […]

salivary gland function = test: Saliva production in mice after single dose head and neck IR; type: in vivo
Method: The star indicates time of IR treatment. Three TKI dosing regimens were used, where times of delivery is indicated by the filled circles. Mice were treated with the specific TKI 1 hour prior to delivery of IR (pre), 1 hour prior and 3 hours post IR (pre/post), or 3 and 6 hours post (post/post). Saliva production was assayed prior to IR (day 0) and at 60 days after IR as described in Examples. […] Saliva was collected […]. as described in Examples. Salivary production (saliva weight/animal weight) for each cohort of mice was normalized against the saliva production for vehicle treated mice to generate the data shown.
The star indicates time of IR treatment; while TKI delivery is indicated by the filled circles and arrows indicate time of saliva collection. Mice were dosed 1 hour prior and 3 hours post IR (pre/post), or pre/post plus twice a week for the duration of the experiment. Saliva production was assayed prior to IR (day 0) and at 30, 60, 90, 120 and 150 days after IR. Mice received vehicle alone, 15 Gy IR plus vehicle, or IR plus dasatinib as indicated. Saliva production (saliva weight/animal weight) for each cohort of mice was normalized against the production for vehicle-treated mice to generate the data shown in FIG. 3B. […] Salivary glands from mice in each group (n=2) were removed, formalin fixed and paraffin embedded. Immunohistochemistry for AQPN5 and H&E staining was performed on salivary glands from each mouse. […] Images were captured using an Olympus BX51 scope and Olympus DP72 camera with a 20× objective. Solid arrows indicate acinar cells while dashed arrows mark salivary gland ducts.
The schematic in FIG. 2A depicts the 3 dosing regimens used for the experiments in FIG. 2.
(§1) C57Bl/6 and athymic nude female mice were purchased from Jackson Laboratories (Bar Harbor, Me., USA). For single dose IR, mice were anesthetized by intraperitoneal (i.p.) injection of […] Avertin (Sigma), immobilized within a 50-mL conical tube, and a single dose of IR (10 or 15 Gy) was delivered to the head and neck using a Caesium-137 source. For fractionated IR, mice received 5 fractions of 6 Gy (tumor study) or 4 Gy (saliva production) on 5 consecutive days.
Saliva was collected immediately following i.p. injection of 0.1 mg/kg carbachol (Sigma) in saline (0.9% NaCl). Whole saliva was collected for 3 mins from the lower cheek pouch using a suction device and expressed as mg (saliva)/g (mouse weight).

[1] = tested on: FaDu derived xenograft tumors; test: FaDu flank xenograft tumor growth with fractionated IR; type: in vivo, nude mice
Method: as §1

ParC5 cells = test: IR-induced apoptosis, caspase-3/7 activity in salivary gland acinar cells; type: cell-based, rat; conditions: TKI pretreatment 30 min, 10 Gy IR, 18 hours after IR
Method: Whole cell lysates were resolved with SDS-PAGE and analyzed using phospho-specific antibodies that recognize PKC-delta pY64, pY155 or pT505. Membranes were stripped and probed for total PKC-delta and actin to determine loading. Each experiment was done a minimum of three times; representative immunoblots are shown. […] Caspase-3/7 activity was assayed as described in the Examples. Data shown is the average of triplicate samples from a representative experiment plus and minus the S.D. (error bars). The experiment was repeated three times, *=p<0.05 for caspase activity compared to cells expressing shScr. An immunoblot showing depletion of PKC-delta is shown below. […] The data are the average of triplicate measurements from a representative experiment plus the S.D. (error bars). Each experiment was repeated three times. *=p<0.05 for caspase activity compared to cells treated with IR alone. […] Inhibition of c-Src and c-Abl was determined by probing for their respective activation sites pY416 (c-Src) and pY412 (c-Abl). […]
Phosphorylation of PKC-delta at T505 is seen within 1 hour after IR, while phosphorylation at Y64 and Y155 are detectable by 2 hours post IR and continue to increase until at least 6 hours (FIG. 1A). […] Active caspase-3/7 was detected using the Caspase-3/7 Cellular Activity Assay Kit PLUS (Biomol, Farmingdale, N.Y.) according to the manufacturer's instructions.

PKC-delta = conditions: in response to DNA damaging agents; previously shown; cited from earlier work
[2] = tested on: PKC-delta, c-Src, c-Abl in ParC5 cells; test: Immunoblot for PKC-delta pY64/pY155, c-Src pY416 and c-Abl pY412 after H2O2; type: cell-based, rat; conditions: TKI 30 min, then 5 mM H2O2 30 min

Structure (SMILES) | AQPN5 staining in the SMGs, % of vehicle treated mice (SMG acinar cells) [%] | saliva production, % of vehicle treated controls (salivary gland function; 15 Gy IR, dasatinib 20 mg/kg pre/post, 60 days post IR (FIG. 2B)) [%] | saliva production, % of vehicle treated mice (salivary gland function; 15 Gy IR, dasatinib pre/post only, 30 and 60 days (FIG. 3B)) [%] | saliva production, % of vehicle treated controls (salivary gland function; 15 Gy IR, dasatinib pre/post plus twice a week (continual), 90 days) [%] | saliva production, % of vehicle treated controls (salivary gland function; 15 Gy IR, dasatinib pre/post plus twice a week (continual), 120 days) [%] | saliva production, % of vehicle treated controls (salivary gland function; 15 Gy IR, dasatinib pre/post plus twice a week (continual), 150 days) [%] | protection of salivary gland function compared to vehicle only treated mice (salivary gland function; IR plus dasatinib, all 3 protocols (pre, pre/post, post/post), 60 days (FIG. 2D)) [%] | tumor growth, TKI added to fractionated IR ([1]; 5 x 6 Gy IR, dasatinib 20 mg/kg or imatinib 50 mg/kg pre/post each fraction) | tumor growth, TKI alone compared to respective controls ([1]; dasatinib 20 mg/kg or imatinib 50 mg/kg alone, no IR) | IR-induced apoptosis (caspase-3/7 activity) (ParC5 cells) | phosphorylation of PKC-delta at Y64 and Y155, nuclear translocation of PKC-delta, and apoptosis (PKC-delta) | saliva production, % of vehicle control (salivary gland function; IR plus imatinib, one dose prior to IR (pre), 60 days (FIG. 2E)) [%] | inhibition of Y155 versus Y64 phosphorylation of PKC-delta [2] | inhibition of c-Abl versus c-Src [2]
Cc1nc(Nc2ncc(C(=O)Nc3c(C)cccc3Cl)s2)cc(N2CCN(CCO)CC2)n1 [dasatinib] | 93 | 65 | 70 | 74 | 69 | 82 | ~100 | – | – | – | – | – | – | –
Cc1ccc(NC(=O)c2ccc(CN3CCN(C)CC3)cc2)cc1Nc1nccc(-c2cccnc2)n1 [imatinib] | – | – | – | – | – | – | – | no effect on tumor growth | trend towards reduced tumor growth | inhibits IR-induced apoptosis | block | 63 | slightly more potent inhibitors of Y155 phosphorylation than Y64 phosphorylation | more potent inhibition of c-Abl than c-Src
